Measurements from US12209144B2, “Cyclic peptides as proprotein convertase subtilisin/kexin type 9 (PCSK9) inhibitors for the treatment of metabolic disorders” (Novartis AG, priority 2018, dated 2025).
Bridge positions count the residues as written; N and C are the ends. Square brackets hold non-standard residues; d marks the D form. Peptide text beside a SMILES is read from it. Phe(3,4-Cl2) = N[C@@H](Cc1ccc(Cl)c(Cl)c1)C(=O)O; Bip = N[C@@H](Cc1ccc(-c2ccccc2)cc1)C(=O)O; Phe(3-F) = N[C@@H](Cc1cccc(F)c1)C(=O)O; NMeF = CN[C@@H](Cc1ccccc1)C(=O)O; NMeA = CN[C@@H](C)C(=O)O

The compounds below were run against human PCSK9 (Homo sapiens, UniProt Q8NBP7) (assay: PCSK9 ligand binding assay (TR-FRET): interference with binding of human PCSK9 to human LDLR). Details: PCSK9 FRET assay, efficacy (Amax); 0% = DMSO, 100% = 1 uM unlabeled human PCSK9.
Experimental: The activity of cyclic polypeptides according to the disclosure as PCSK9 can be assessed using a time resolved fluorescence resonance energy transfer (TR-FRET) assay. This time resolved fluorescence resonance energy transfer (TR-FRET) assay measures the ability of a cyclic polypeptides of the disclosure to interfere with the binding of human PCSK9 to human LDLR, providing measures of both potency (IC50) and efficacy (Amax).
Solutions of varying concentrations are prepared by diluting a cyclic polypeptide of the disclosure in dimethylsulfoxide (DMSO) and the resulting solutions are pipetted into a plate. DMSO is used as a negative control. An intermediate plate is prepared in by transferring a known amount of each polypeptide solution and of the control from the compound plate into a corresponding well containing assay buffer and mixing thoroughly. A third plate is then prepared to be used for the assay by adding Human PCSK9 Alexa Fluor 647, followed by a known amount of each solution from the intermediate plate. Unlabeled human PCSK9 in assay buffer containing DMSO is used as a positive control for the assay. Following incubation, Human LDLR extracellular domain-Europium Kryptate is added to each well of the assay plate and the resulting mixture is incubated for an additional period of time. The TR-FRET signal is measured and the FRET ratio (FRET/Europium) is used to calculate the IC50 and Amax of the cyclic polypeptides.
The PCSK9 binding of the cyclic polypeptides of the disclosure were measured using a time resolved fluorescence resonance energy transfer (TR-FRET) assay. This time resolved fluorescence resonance energy transfer (TR-FRET) assay measures the ability of a cyclic polypeptide of the disclosure to interfere with the binding of human PCSK9 to human LDLR, providing measures of both potency (IC50) and efficacy (Amax).
• Human PCSK9 • Human PCSK9 Alexa Fluor 647 • Human LDLR extracellular domain-Europium Kryptate • Proxi plate-low volume assay plate (PerkinElmer #6008280) • Greiner V-bottom (Greiner BioOne #781280) • Assay Buffer • 20 mM HEPES, pH 7.5 • 150 mM NaCl • 1 mM CaCl2 • 0.01% v/v Tween20 • 0.01% w/v BSA
A master compound plate was prepared in a Greiner V bottom plate by diluting cyclic polypeptides of the disclosure in dimethylsulfoxide to the correct concentration for the desired top concentration based on the desired final concentration: for a 30 uM final concentration the master plate concentration is 1.5 mM (68 uL DMSO+12 uL 10 mM of a cyclic polypeptide of the disclosure), for a 10 uM final concentration the master plate concentration is 0.5 mM (76 uL DMSO+4 uL 10 mM of a cyclic polypeptide of the disclosure), for a 3 uM final concentration the master plate concentration is 150 uM (69 uL DMSO+1 uL 10 mM a cyclic peptide of the disclosure). These solutions were pipetted into columns 1 and 11 of the compound plate. Threefold serial dilutions were generated in columns 2-10 and 12-20 of the compound plate by transferring 10 uL into 20 μL of DMSO. Columns 21 and 22 of the compound plate were negative controls containing DMSO alone.
An intermediate plate was generated in a Greiner V bottom plate by transferring 8 uL from each well of the master plate into a corresponding well containing 92 μL of assay buffer and mixing thoroughly.
A Proxi plate-low volume assay plate was used for the assay. To all wells of the plate was added 10 μL of 16 nM Human PCSK9 Alexa Fluor 647, followed by 5 uL from the intermediate plate. […] Following a 30 minute incubation, 5 μL of 4 nM Human LDLR extracellular domain-Europium Kryptate was added and the mixture was incubated for an additional 2 hours.
The TR-FRET signal was measured on an EnVision or PheraStar instrument with a […] delay, 330 nm excitation and 665 nm emission (FRET), and 330 nm excitation and 615 nm (Europium). The FRET ratio (FRET/Europium) was used for calculations. […]

human PCSK9, sequence (Q8NBP7 153-692): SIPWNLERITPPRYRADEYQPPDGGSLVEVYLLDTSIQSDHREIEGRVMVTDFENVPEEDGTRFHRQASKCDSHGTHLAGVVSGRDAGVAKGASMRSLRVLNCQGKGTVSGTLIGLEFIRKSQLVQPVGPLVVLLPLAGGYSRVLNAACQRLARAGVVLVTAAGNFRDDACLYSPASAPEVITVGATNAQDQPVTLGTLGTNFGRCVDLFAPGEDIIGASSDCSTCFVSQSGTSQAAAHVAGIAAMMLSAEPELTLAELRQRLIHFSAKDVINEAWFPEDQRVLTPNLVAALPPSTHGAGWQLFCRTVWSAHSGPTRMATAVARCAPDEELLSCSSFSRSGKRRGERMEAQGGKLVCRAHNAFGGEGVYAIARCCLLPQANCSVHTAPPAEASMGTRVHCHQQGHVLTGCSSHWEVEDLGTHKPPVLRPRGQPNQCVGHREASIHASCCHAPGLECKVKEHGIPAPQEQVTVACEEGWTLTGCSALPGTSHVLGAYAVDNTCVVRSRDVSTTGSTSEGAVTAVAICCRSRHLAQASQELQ
human PCSK9, sequence (Q8NBP7 31-152 partner limits assumed): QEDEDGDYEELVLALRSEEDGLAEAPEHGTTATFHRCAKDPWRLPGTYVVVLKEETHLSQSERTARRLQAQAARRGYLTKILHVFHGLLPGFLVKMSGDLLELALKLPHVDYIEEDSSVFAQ

SMILES | Maximum % inhibition
CC(C)[C@@H]1NC(=O)[C@H](Cc2ccccc2)NC(=O)CSC[C@@H](C(=O)NCC(N)=O)NC(=O)[C@@H]2CCCN2C(=O)[C@H](CO)NC(=O)[C@H](CCC(=O)O)NC(=O)[C@H](C)N(C)C(=O)[C@H](Cc2ccc(-c3ccccc3)cc2)NC(=O)[C@H](Cc2ccccc2)N(C)C(=O)[C@H](CO)NC(=O)[C@H]([C@@H](C)O)NC(=O)[C@H]([C@@H](C)O)NC(=O)[C@H](CO)NC1=O [Example 1-12, Ac*-F-V-S-T-T-S-(N-Me)F-B-(N-Me)A-E-S-P-C*-G-NH2] ({CH2CO}-FVSTTS[NMeF][Bip][NMeA]ESPCG-NH2; thioether N-13) | 87%
CC(C)[C@@H]1NC(=O)[C@H](Cc2ccccc2)NC(=O)CSC[C@@H](C(=O)NCC(N)=O)NC(=O)[C@@H]2CCCN2C(=O)[C@H](CO)NC(=O)[C@H](CCC(=O)O)NC(=O)[C@H](C)N(C)C(=O)[C@H](Cc2ccc(-c3ccccc3)cc2)NC(=O)[C@H](Cc2ccccc2)N(C)C(=O)[C@H](Cc2ccc(-c3ccccc3)cc2)NC(=O)[C@H]([C@@H](C)O)NC(=O)[C@H]([C@@H](C)O)NC(=O)[C@H](CO)NC1=O [Example 1-13, Ac*-F-V-S-T-T-B-(N-Me)F-B-(N-Me)A-E-S-P-C*-G-NH2] ({CH2CO}-FVSTT[Bip][NMeF][Bip][NMeA]ESPCG-NH2; thioether N-13) | 86%
CC(C)[C@@H]1NC(=O)[C@H](Cc2ccccc2)NC(=O)CSC[C@@H](C(=O)NCC(N)=O)NC(=O)[C@@H]2CCCN2C(=O)[C@H](CCCNC(=N)N)NC(=O)[C@H](CC(=O)O)NC(=O)[C@H](C)N(C)C(=O)[C@H](Cc2ccc(Cl)c(Cl)c2)NC(=O)[C@H](C)N(C)C(=O)[C@H](Cc2ccc(-c3ccccc3)cc2)NC(=O)[C@H]([C@@H](C)O)NC(=O)[C@H]([C@@H](C)O)NC(=O)[C@H](CO)NC1=O [Example 1-14, Ac*-F-V-S-T-T-B-(N-Me)A-(3,4-diCl)F-(N-Me)A-D-R-P-C*-G-NH2] ({CH2CO}-FVSTT[Bip][NMeA][Phe(3,4-Cl2)][NMeA]DRPCG-NH2; thioether N-13) | 49%
CC(C)[C@@H]1NC(=O)[C@H](Cc2ccccc2)NC(=O)CSC[C@@H](C(=O)NCC(N)=O)NC(=O)[C@@H]2CCCN2C(=O)[C@H](CCCNC(=N)N)NC(=O)[C@H](CC(=O)O)NC(=O)[C@H](C)N(C)C(=O)[C@H](Cc2cccc(F)c2)NC(=O)[C@H](C)N(C)C(=O)[C@H](Cc2ccc(-c3ccccc3)cc2)NC(=O)[C@H]([C@@H](C)O)NC(=O)[C@H]([C@@H](C)O)NC(=O)[C@H](CO)NC1=O [Example 1-15, Ac*-F-V-S-T-T-B-(N-Me)A-(3-F)F-(N-Me)A-D-R-P-C*-G-NH2] ({CH2CO}-FVSTT[Bip][NMeA][Phe(3-F)][NMeA]DRPCG-NH2; thioether N-13) | 53%
CC(C)[C@@H]1NC(=O)[C@H](Cc2ccccc2)NC(=O)CSC[C@@H](C(=O)NCC(N)=O)NC(=O)[C@@H]2CCCN2C(=O)[C@H](C)NC(=O)[C@H](CCC(=O)O)NC(=O)[C@H](C)N(C)C(=O)[C@H](Cc2ccc(-c3ccccc3)cc2)NC(=O)[C@H](Cc2ccccc2)N(C)C(=O)[C@H](C)NC(=O)[C@H]([C@@H](C)O)NC(=O)[C@H]([C@@H](C)O)NC(=O)[C@H](CC(=O)O)NC1=O [Example 1-16, Ac*-F-V-D-T-T-A-(N-Me)F-B-(N-Me)A-E-A-P-C*-G-NH2] ({CH2CO}-FVDTTA[NMeF][Bip][NMeA]EAPCG-NH2; thioether N-13) | 91%
CC(C)[C@@H]1NC(=O)[C@H](Cc2ccccc2)NC(=O)CSC[C@@H](C(=O)NCC(N)=O)NC(=O)[C@@H]2CCCN2C(=O)[C@H](CO)NC(=O)[C@H](CCC(=O)O)NC(=O)[C@H](C)N(C)C(=O)[C@H](Cc2ccc(-c3ccccc3)cc2)NC(=O)[C@H](C)N(C)C(=O)[C@H](Cc2ccccc2)NC(=O)[C@H]([C@@H](C)O)NC(=O)[C@H]([C@@H](C)O)NC(=O)[C@H](CC(=O)O)NC1=O [Example 1-17, Ac*-F-V-D-T-T-F-(N-Me)A-B-(N-Me)A-E-S-P-C*-G-NH2] ({CH2CO}-FVDTTF[NMeA][Bip][NMeA]ESPCG-NH2; thioether N-13) | 91%
CC(C)[C@@H]1NC(=O)[C@H](Cc2ccccc2)NC(=O)CSC[C@@H](C(=O)NCC(N)=O)NC(=O)[C@@H]2CCCN2C(=O)[C@H](C)NC(=O)[C@H](CCC(N)=O)NC(=O)[C@H](C)N(C)C(=O)[C@H](Cc2ccc(-c3ccccc3)cc2)NC(=O)[C@H](Cc2ccccc2)N(C)C(=O)[C@H](C)NC(=O)[C@H]([C@@H](C)O)NC(=O)[C@H]([C@@H](C)O)NC(=O)[C@H](CC(N)=O)NC1=O [Example 1-18, Ac*-F-V-N-T-T-A-(N-Me)F-B-(N-Me)A-Q-A-P-C*-G-NH2] ({CH2CO}-FVNTTA[NMeF][Bip][NMeA]QAPCG-NH2; thioether N-13) | 53%
CC(C)[C@@H]1NC(=O)[C@H](Cc2ccccc2)NC(=O)CSC[C@@H](C(=O)NCC(N)=O)NC(=O)[C@@H]2CCCN2C(=O)[C@H](CCCNC(=N)N)NC(=O)[C@H](CC(=O)O)NC(=O)[C@H](C)N(C)C(=O)[C@H](Cc2ccc(-c3ccccc3)cc2)NC(=O)[C@H](C)N(C)C(=O)[C@H](Cc2ccc(-c3ccccc3)cc2)NC(=O)[C@H]([C@@H](C)O)NC(=O)[C@H]([C@@H](C)O)NC(=O)[C@@H]2CCCN2C1=O [Example 1-19, Ac*-F-V-P-T-T-B-(N-Me)A-B-(N-Me)A-D-R-P-C*-G-NH2] ({CH2CO}-FVPTT[Bip][NMeA][Bip][NMeA]DRPCG-NH2; thioether N-13) | 38%
CC(C)[C@@H]1NC(=O)[C@H](Cc2ccccc2)NC(=O)CSC[C@@H](C(=O)NCC(N)=O)NC(=O)[C@@H]2CCCN2C(=O)[C@H](CO)NC(=O)[C@@H]2CCCN2C(=O)[C@H](C)N(C)C(=O)[C@H](Cc2ccc(-c3ccccc3)cc2)NC(=O)[C@H](C)N(C)C(=O)[C@H](Cc2ccc(-c3ccccc3)cc2)NC(=O)[C@H]([C@@H](C)O)NC(=O)[C@H]([C@@H](C)O)NC(=O)[C@H](CO)NC1=O [Example 1-20, Ac*-F-V-S-T-T-B-(N-Me)A-B-(N-Me)A-P-S-P-C*-G-NH2] ({CH2CO}-FVSTT[Bip][NMeA][Bip][NMeA]PSPCG-NH2; thioether N-13) | 35%
CC(C)[C@@H]1NC(=O)[C@H](Cc2ccccc2)NC(=O)CSC[C@@H](C(=O)NCC(N)=O)NC(=O)[C@@H]2CCCN2C(=O)[C@H](C)NC(=O)[C@H](CCC(=O)O)NC(=O)[C@H](C)N(C)C(=O)[C@H](Cc2ccc(-c3ccccc3)cc2)NC(=O)[C@H](Cc2ccccc2)N(C)C(=O)[C@H](C)NC(=O)[C@H]([C@@H](C)O)NC(=O)[C@H]([C@@H](C)O)NC(=O)[C@@H]2CCCN2C1=O [Example 1-21, Ac*-F-V-P-T-T-A-(N-Me)F-B-(N-Me)A-E-A-P-C*-G-NH2] ({CH2CO}-FVPTTA[NMeF][Bip][NMeA]EAPCG-NH2; thioether N-13) | 81%
CC(C)[C@@H]1NC(=O)[C@H](Cc2ccccc2)NC(=O)CSC[C@@H](C(=O)NCC(N)=O)NC(=O)[C@@H]2CCCN2C(=O)[C@H](C)NC(=O)[C@H](CCCCN)NC(=O)[C@H](C)N(C)C(=O)[C@H](Cc2ccc(-c3ccccc3)cc2)NC(=O)[C@H](C)N(C)C(=O)[C@H](Cc2ccccc2)NC(=O)[C@H]([C@@H](C)O)NC(=O)[C@H]([C@@H](C)O)NC(=O)[C@H](C)NC1=O [Example 1-22, Ac*-F-V-A-T-T-F-(N-Me)A-B-(N-Me)A-K-A-P-C*-G-NH2] ({CH2CO}-FVATTF[NMeA][Bip][NMeA]KAPCG-NH2; thioether N-13) | 49%

Same assay, conditions: TR-FRET; Human PCSK9 Alexa Fluor 647 and Human LDLR extracellular domain-Europium Kryptate

SMILES | IC50
CC(C)[C@@H]1NC(=O)[C@H](Cc2ccccc2)NC(=O)CSC[C@@H](C(=O)NCC(N)=O)NC(=O)[C@@H]2CCCN2C(=O)[C@H](CCCNC(=N)N)NC(=O)[C@H](CC(=O)O)NC(=O)[C@H](C)N(C)C(=O)[C@H](Cc2cccc(F)c2)NC(=O)[C@H](C)N(C)C(=O)[C@H](Cc2ccc(-c3ccccc3)cc2)NC(=O)[C@H]([C@@H](C)O)NC(=O)[C@H]([C@@H](C)O)NC(=O)[C@H](CO)NC1=O [Example 1-15, Ac*-F-V-S-T-T-B-(N-Me)A-(3-F)F-(N-Me)A-D-R-P-C*-G-NH2] ({CH2CO}-FVSTT[Bip][NMeA][Phe(3-F)][NMeA]DRPCG-NH2; thioether N-13) | 12 nM
CC(C)[C@@H]1NC(=O)[C@H](Cc2ccccc2)NC(=O)CSC[C@@H](C(=O)NCC(N)=O)NC(=O)[C@@H]2CCCN2C(=O)[C@H](C)NC(=O)[C@H](CCCCN)NC(=O)[C@H](C)N(C)C(=O)[C@H](Cc2ccc(-c3ccccc3)cc2)NC(=O)[C@H](C)N(C)C(=O)[C@H](Cc2ccccc2)NC(=O)[C@H]([C@@H](C)O)NC(=O)[C@H]([C@@H](C)O)NC(=O)[C@H](C)NC1=O [Example 1-22, Ac*-F-V-A-T-T-F-(N-Me)A-B-(N-Me)A-K-A-P-C*-G-NH2] ({CH2CO}-FVATTF[NMeA][Bip][NMeA]KAPCG-NH2; thioether N-13) | 12 nM
